Reference: ChEMBL document CHEMBL1201862, “PubChem BioAssay data set” (2004)
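Cells were grown in 96-well plates and exposed to each compound for 48 hours at five concentrations; endpoints were interpolated linearly between bracketing concentrations, or set to the highest concentration if not reached. At the GI50, growth is halved.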 Active and inactive are the calls of the source. Cut-off read from the data, not from the text of the source: active = GI50 up to about 1.1 µM and inactive = higher.

Tests used:
Experiment in all cases: NCI anticancer screen, dose series, 48 h
PC-3 = test system: PC-3
HL-60 = test system: HL-60
SF-295 = test system: SF-295
TK-10 = test system: TK-10
SK-MEL-28 = test system: SK-MEL-28
HCT-15 = test system: HCT-15
MOLT-4 = test system: MOLT-4
Malme-3M = test system: Malme-3M
786-0 = test system: 786-0
ACHN = test system: ACHN
KM12 = test system: KM12
HCC 2998 = test system: HCC 2998
SF-268 = test system: SF-268
BT-549 = test system: BT-549
SNB-75 = test system: SNB-75
Hs-578T = test system: Hs-578T
HOP-92 = test system: HOP-92
CAKI-1 = test system: CAKI-1
U-251 = test system: U-251
OVCAR-8 = test system: OVCAR-8
NCI-H460 = test system: NCI-H460
UO-31 = test system: UO-31
NCI-H226 = test system: NCI-H226
SNB-19 = test system: SNB-19
NCI-H522 = test system: NCI-H522
EKVX = test system: EKVX
OVCAR-4 = test system: OVCAR-4
SW-620 = test system: SW-620
OVCAR-5 = test system: OVCAR-5
K562 = test system: K562
MDA-N = test system: MDA-N
SN12C = test system: SN12C
T47D = test system: T47D
HT-29 = test system: HT-29
SK-MEL-2 = test system: SK-MEL-2
MDA-MB-435 = test system: MDA-MB-435
CCRF-CEM = test system: CCRF-CEM
COLO 205 = test system: COLO 205
A498 = test system: A498
LOX IMVI = test system: LOX IMVI
OVCAR-3 = test system: OVCAR-3
UACC-62 = test system: UACC-62
A549 = test system: A549
DU-145 = test system: DU-145
UACC-257 = test system: UACC-257
RXF 393 = test system: RXF 393
SK-OV-3 = test system: SK-OV-3
HOP-62 = test system: HOP-62
NCI-H23 = test system: NCI-H23
SK-MEL-5 = test system: SK-MEL-5
NCI/ADR-RES = test system: NCI/ADR-RES
SF-539 = test system: SF-539
IGROV-1 = test system: IGROV-1
MCF7 = test system: MCF7
M14 = test system: M14
HCT-116 = test system: HCT-116
MDA-MB-231 = test system: MDA-MB-231
RPMI-8226 = test system: RPMI-8226

With `CC(CNC(N)=O)NC(N)=O` (stereo unspecified) the GI50 (PC-3) was > 100 µM (inactive), the GI50 (HL-60) was > 100 µM (inactive) and the GI50 (SF-295) was > 100 µM (inactive). The GI50 (TK-10) was > 100 µM (inactive), the GI50 (SK-MEL-28) was > 100 µM (inactive) and the GI50 (HCT-15) was > 100 µM. For the same compound, the GI50 (MOLT-4) was > 100 µM (inactive), the GI50 (Malme-3M) was > 100 µM (inactive) and the GI50 (786-0) was > 100 µM (inactive). For the same compound, the GI50 (ACHN) was > 100 µM (inactive), the GI50 (KM12) was > 100 µM (inactive) and the GI50 (HCC 2998) was > 100 µM (inactive). The GI50 (SF-268) was > 100 µM (inactive), the GI50 (BT-549) was > 100 µM (inactive) and the GI50 (SNB-75) was > 100 µM (inactive). For the same compound, the GI50 (Hs-578T) was > 100 µM (inactive), the GI50 (HOP-92) was > 100 µM (inactive) and the GI50 (CAKI-1) was > 100 µM (inactive). For the same compound, the GI50 (U-251) was > 100 µM (inactive), the GI50 (OVCAR-8) was > 100 µM (inactive) and the GI50 (NCI-H460) was > 100 µM (inactive). The GI50 (UO-31) was > 100 µM (inactive), the GI50 (NCI-H226) was > 100 µM (inactive) and the GI50 (SNB-19) was > 100 µM (inactive). For the same compound, the GI50 (NCI-H522) was > 100 µM (inactive), the GI50 (EKVX) was > 100 µM (inactive) and the GI50 (OVCAR-4) was > 100 µM (inactive). For the same compound, the GI50 (SW-620) was > 100 µM (inactive), the GI50 (OVCAR-5) was > 100 µM (inactive) and the GI50 (K562) was > 100 µM (inactive). The GI50 (MDA-N) was > 100 µM (inactive), the GI50 (SN12C) was > 100 µM (inactive) and the GI50 (T47D) was > 100 µM (inactive). For the same compound, the GI50 (HT-29) was > 100 µM (inactive), the GI50 (SK-MEL-2) was > 100 µM (inactive) and the GI50 (MDA-MB-435) was > 100 µM (inactive). The GI50 (CCRF-CEM) was > 100 µM (inactive), the GI50 (COLO 205) was > 100 µM (inactive) and the GI50 (A498) was > 100 µM (inactive). For the same compound, the GI50 (LOX IMVI) was > 100 µM (inactive), the GI50 (OVCAR-3) was > 100 µM (inactive) and the GI50 (UACC-62) was > 100 µM (inactive). The GI50 (A549) was > 100 µM (inactive), the GI50 (DU-145) was > 100 µM (inactive) and the GI50 (UACC-257) was > 100 µM (inactive). For the same compound, the GI50 (RXF 393) was > 100 µM (inactive), the GI50 (SK-OV-3) was > 100 µM (inactive) and the GI50 (HOP-62) was > 100 µM (inactive). The GI50 (NCI-H23) was > 100 µM (inactive), the GI50 (SK-MEL-5) was > 100 µM (inactive) and the GI50 (NCI/ADR-RES) was > 100 µM (inactive). For the same compound, the GI50 (SF-539) was > 100 µM (inactive), the GI50 (IGROV-1) was > 100 µM (inactive) and the GI50 (MCF7) was > 100 µM (inactive). The GI50 (M14) was > 100 µM (inactive), the GI50 (HCT-116) was > 100 µM (inactive) and the GI50 (MDA-MB-231) was > 100 µM (inactive). The GI50 (RPMI-8226) was > 100 µM (inactive).

For `CN(C)c1ccc(/C=C(\NC(=O)c2ccccc2)C(=O)NC(Cc2c[nH]c3ccccc23)C(=O)O)cc1` (stereo unspecified), the GI50 (PC-3) was > 100 µM (inactive), the GI50 (HL-60) was > 100 µM (inactive) and the GI50 (SF-295) was > 100 µM (inactive). For the same compound, the GI50 (TK-10) was > 100 µM (inactive), the GI50 (SK-MEL-28) was > 100 µM (inactive) and the GI50 (HCT-15) was > 100 µM. The GI50 (MOLT-4) was > 100 µM (inactive), the GI50 (Malme-3M) was > 100 µM (inactive) and the GI50 (786-0) was > 100 µM (inactive). For the same compound, the GI50 (ACHN) was > 100 µM (inactive), the GI50 (KM12) was > 100 µM (inactive) and the GI50 (HCC 2998) was > 100 µM (inactive). The GI50 (SF-268) was > 100 µM (inactive), the GI50 (BT-549) was > 100 µM (inactive) and the GI50 (SNB-75) was 0.226 µM (active). The GI50 (Hs-578T) was > 100 µM (inactive), the GI50 (HOP-92) was > 100 µM (inactive) and the GI50 (CAKI-1) was > 100 µM (inactive). For the same compound, the GI50 (U-251) was > 100 µM (inactive), the GI50 (OVCAR-8) was > 100 µM (inactive) and the GI50 (NCI-H460) was > 100 µM (inactive). For the same compound, the GI50 (UO-31) was > 100 µM (inactive), the GI50 (NCI-H226) was > 100 µM (inactive) and the GI50 (SNB-19) was > 100 µM (inactive). For the same compound, the GI50 (NCI-H522) was 47.6 µM (inactive), the GI50 (EKVX) was > 100 µM (inactive) and the GI50 (OVCAR-4) was > 100 µM (inactive). The GI50 (SW-620) was > 100 µM (inactive), the GI50 (OVCAR-5) was > 100 µM (inactive) and the GI50 (K562) was > 100 µM (inactive). For the same compound, the GI50 (MDA-N) was > 100 µM (inactive), the GI50 (SN12C) was > 100 µM (inactive) and the GI50 (T47D) was > 100 µM (inactive). For the same compound, the GI50 (HT-29) was > 100 µM (inactive), the GI50 (SK-MEL-2) was > 100 µM (inactive) and the GI50 (MDA-MB-435) was > 100 µM (inactive). The GI50 (CCRF-CEM) was > 100 µM (inactive), the GI50 (COLO 205) was > 100 µM (inactive) and the GI50 (A498) was > 100 µM (inactive). For the same compound, the GI50 (LOX IMVI) was > 100 µM (inactive), the GI50 (OVCAR-3) was > 100 µM (inactive) and the GI50 (UACC-62) was > 100 µM (inactive). For the same compound, the GI50 (A549) was > 100 µM (inactive), the GI50 (DU-145) was > 100 µM (inactive) and the GI50 (UACC-257) was 69 µM (inactive). The GI50 (RXF 393) was > 100 µM (inactive), the GI50 (SK-OV-3) was > 100 µM (inactive) and the GI50 (HOP-62) was 34.4 µM (inactive). The GI50 (NCI-H23) was > 100 µM (inactive), the GI50 (SK-MEL-5) was > 100 µM (inactive) and the GI50 (NCI/ADR-RES) was > 100 µM (inactive). For the same compound, the GI50 (SF-539) was > 100 µM (inactive), the GI50 (IGROV-1) was > 100 µM (inactive) and the GI50 (MCF7) was > 100 µM (inactive). The GI50 (M14) was > 100 µM (inactive), the GI50 (HCT-116) was > 100 µM (inactive) and the GI50 (MDA-MB-231) was > 100 µM (inactive). For the same compound, the GI50 (RPMI-8226) was > 100 µM (inactive).
